Source: patent US20230034248A1, “PLANT STOMATA OPENING PROMOTING AGENT” (OAT Agrio Co., Ltd., priority 2019, published 2023)

Experiments:
[1] = tested on: tomato seedlings; assay: Abscisic acid-induced stomatal closure inhibitory activity, second evaluation (foliar spray, ratio of open stomata); assay type: in vivo, tomato (cultivar: Ponderosa); conditions: for ratio of open stomata as compared to without the addition (student's t-test) / ratio of open stomata as compared to without the addition: 30 μM abscisic acid
Procedure: (§1) On Jun. 31, 2018, a seedling pot (Bee pot Y-55, manufactured by CANELON C.E) was filled with the culture soil, Kumiai Gardening Seedling Culture Soil AISAI No. 1 (manufactured by Katakura & Co-op Agri Corporation), to be level with the upper side of the pot. Two seeds of tomato (cultivar: Ponderosa) were planted in each pot, and the seedling pot was placed in a climate chamber (25° C., dark period/bright period: 11 h/13 h, bright period: 6:00 a.m. to 19:00 p.m.) at the Cultivation Research Center of OAT Agrio Co., Ltd. Water was supplied from the bottom of the pot, and plants were selected at the time of cotyledon development. At 8:30 a.m. on August 21, chemical solutions each prepared by dissolving 100 ppm of Tween (registered trademark) 80, 30 μM of abscisic acid, and 0 (Comparative Example 12), 100, 300, or 500 μM of steviol were sprayed evenly onto above-ground parts of crops grown to a plant age of about 4 in leaf number. At 11:30 a.m. and 16:00 p.m. on the same day, stomata on the underside of the top leaflet of the second leaf of crops were sampled on a cover glass with an instant adhesive (instant bond for general use AronAlpha (registered trademark) manufactured by TOAGOSEI CO., LTD.) thereon to prepare samples for stomatal observation. These samples were observed under a microscope (magnification 1,000×) to count the number of open or closed stomata in 100 or more stomata, and the ratio of open stomata was calculated according to the following equation:
ratio (%) of open stomata=100×(number of open stomata)/(total number of investigated stomata) (Equation)
(§2) The investigations were made in quadruplicate for each treatment condition. A significance test was performed by student's t-test on the ratio of open stomata obtained from the investigation of each individual plant against the ratio of open stomata obtained for the plot without the addition of steviol (0 μm: Comparative Example 12).
as §1, with “Feb. 27,” for “Jun. 31,”, “March 15,” for “August 21,”, “13),” for “12), 100,”, “stevioside” for “steviol”, “3” for “4”, “equation: […]” for “equation:”
as §2, with “stevioside” for “steviol”, “13).” for “12).”
On Mar. […]

[2] = tested on: lower epidermis of Commelina benghalensis L.; assay: Stomatal opening promoting activity in a bright place (stomatal aperture of peeled lower epidermis); assay type: cell-based; conditions: for Stomatal Aperture: bright place 3 hours, mean±standard deviation
Procedure: The lower epidermis of Commelina benghalensis L. was peeled off, immersed in the stomatal aperture measurement solution, and allowed to stand still in a dark place for 2 hours. Then, the lower epidermis of Commelina benghalensis L. was immersed in test solutions prepared by adding steviol to the stomatal aperture measurement solution to give 100 or 300 μM (final concentration) or in the stomatal aperture measurement solution without the addition of steviol (Comparative Example 1), and allowed to stand still in a bright place for 3 hours. The lower epidermis of Commelina benghalensis L. after immersion in the test solutions was photographed with a digital camera (LCD (Liquid Crystal Display), manufactured by KENIS LIMITED) attached to a microscope (Olympus BH2; objective lens SPlan 10 [manufactured by Olympus Corporation] magnification 200×). The stomatal aperture was measured with measurement software (digital microanalyzer, manufactured by Nippon Polaroid Corporation; Polaroid is the registered trademark). The stomatal aperture was measured for 80 or more stomata, for each addition concentration. The stomatal aperture obtained at each addition concentration was compared with the stomatal aperture obtained without the addition of steviol (0 μM, Comparative Example 1), and statistical analysis was performed by student's t-test.
The lower epidermis of Commelina benghalensis L. that had been peeled off was immersed in the stomatal aperture measurement solution, and allowed to stand still in a dark place for 2 hours. Then, the lower epidermis of Commelina benghalensis L. was immersed in test solutions prepared by adding FARM A to the stomatal aperture measurement solution to give a 500- or 250-fold dilution (final concentration) or in the stomatal aperture measurement solution without the addition of FARM A (Comparative Example 2), and allowed to stand still in a bright place for 3 hours. Then, the stomatal aperture was measured as in Example 1.

[3] = 100 μM with 30 μM abscisic acid, sprayed 8:30, Time (11:30)
[4] = 300 μM with 30 μM abscisic acid, sprayed 8:30, Time (11:30)
[5] = 500 μM with 30 μM abscisic acid, sprayed 8:30, Time (11:30)
[6] = every addition concentration (100, 300, 500 μM) and every investigation time
[7] = 300 μM with 30 μM abscisic acid, sprayed 8:30, Time (16:00)
[8] = 500 μM with 30 μM abscisic acid, sprayed 8:30, Time (16:00)

Row | Compound | Ratio (%) of Open Stomata [1, 3] | Ratio (%) of Open Stomata ([1]; 100 μM with 30 μM abscisic acid, sprayed 8:30, Time (16:30)) | Ratio (%) of Open Stomata [1, 4] | Ratio (%) of Open Stomata ([1]; 300 μM with 30 μM abscisic acid, sprayed 8:30, Time (16:30)) | Ratio (%) of Open Stomata [1, 5] | Ratio (%) of Open Stomata ([1]; 500 μM with 30 μM abscisic acid, sprayed 8:30, Time (16:30)) | ratio of open stomata as compared to without the addition (student's t-test) ([1]; 300 and 500 μM) | ratio of open stomata as compared to without the addition [1, 6] | Ratio (%) of Open Stomata [1, 7] | Ratio (%) of Open Stomata [1, 8] | ratio of open stomata as compared to without the addition (student's t-test) ([1]; addition concentrations and investigation times other than 500 μM at 11:30 a.m.) | ratio of open stomata as compared to without the addition ([1]; every addition concentration (300, 500 μM) and every investigation time) | stomatal aperture as compared to without the addition (student's t-test) ([2]; 300 μM, bright place) | stomatal aperture as compared to without the addition ([2]; 100 or 300 μM, bright place) | Stomatal Aperture ([2]; addition concentration 100 μM) | Stomatal Aperture ([2]; addition concentration 300 μM) | Ratio (%) of Open Stomata ([1]; 100 μM with 30 μM abscisic acid, sprayed 8:30, Time (16:00)) | ratio of open stomata as compared to without the addition (student's t-test) [1, 6]
1 | C=C1C[C@@]23CC[C@H]4[C@@](C)(CCC[C@@]4(C)C(=O)O[C@@H]4O[C@H](CO)[C@@H](O)[C@H](O)[C@H]4O)[C@@H]2CC[C@]1(O[C@@H]1O[C@H](CO)[C@@H](O)[C@H](O[C@@H]2O[C@H](CO)[C@@H](O)[C@H](O)[C@H]2O)[C@H]1O[C@@H]1O[C@H](CO)[C@@H](O)[C@H](O)[C@H]1O)C3 [rebaudioside A] | 56.6 ± 5.8% | 50.0 ± 3.2% | 58.6 ± 4.6% | 51.2 ± 2.1% | 56.5 ± 3.8% | 54.0 ± 6.6% | statistically significant improvement in the ratio of open stomata | an improvement in the ratio of open stomata |  |  |  |  |  |  |  |  |  | 
2 | C=C1C[C@@]23CC[C@H]4[C@@](C)(CCC[C@@]4(C)C(=O)O[C@@H]4O[C@H](CO)[C@@H](O)[C@H](O)[C@H]4O)[C@@H]2CC[C@]1(O[C@@H]1O[C@H](CO)[C@@H](O)[C@H](O)[C@H]1O[C@@H]1O[C@H](CO)[C@@H](O)[C@H](O)[C@H]1O)C3 [stevioside] |  |  | 65.1 ± 6.4% |  | 45.7 ± 2.7% |  |  |  | 58.0 ± 4.2% | 54.6 ± 3.8% | statistically significant improvement in the ratio of open stomata | an improvement in the ratio of open stomata |  |  |  |  |  | 
3 | C=C1C[C@@]23CC[C@H]4[C@@](C)(CCC[C@@]4(C)C(=O)O)[C@@H]2CC[C@]1(O)C3 [steviol] | 69.0 ± 5.5% |  | 62.7 ± 2.5% |  | 60.1 ± 7.5% |  |  |  | 61.9 ± 4.6% | 62.5 ± 6.8% |  |  | statistically significant increase in the stomatal aperture | an increase in the stomatal aperture | 15.16 ± 0.33 μm | 16.95 ± 0.37 μm | 69.3 ± 3.5% | statistically significant improvement in the ratio of open stomata
